From patent US12215140B2, “Method of stabilizing protein contained in specimen and solution for stabilizing protein contained in specimen” (EIKEN KAGAKU KABUSHIKI KAISHA, priority 2018, dated 2025)

System: hemoglobin-haptoglobin complex
Assay: Stability of hemoglobin (as hemoglobin-haptoglobin complex) in samples preserved at 37° C. in preservation solution containing 1 unit/L haptoglobin, Hb measured by latex agglutination method (Examples 1 to 7)
Design: species or system human
How it was run: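 Latex agglutination (anti-human hemoglobin rabbit polyclonal latex) measured Hb in samples stored at 37 °C up to 21 days; values expressed as % recovery versus day 0. Preservation solution: HEPES 40 mmol/L pH 6.8, BSA 0.1%, NaN3 0.1%, haptoglobin 1 unit/L, phenylboronic acid 0–100 mmol/L, optional sugars; ~300 µg/L Hb, 0.5% feces or none.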

[1] = Feces 1, phenylboronic acid 0.5 mmol/L, 37° C., 0 days
[2] = Feces 1, phenylboronic acid 0.5 mmol/L, 37° C., 7 days
[3] = Feces 1, phenylboronic acid 0.5 mmol/L, 37° C., 14 days
[4] = Feces 1, phenylboronic acid 0.5 mmol/L, 37° C., 21 days
[5] = Feces 1, phenylboronic acid 1 mmol/L, 37° C., 0 days
[6] = Feces 1, phenylboronic acid 1 mmol/L, 37° C., 14 days
[7] = Feces 1, phenylboronic acid 1 mmol/L, 37° C., 21 days
[8] = Feces 1, phenylboronic acid 15 mmol/L, 37° C., 0 days
[9] = Feces 1, phenylboronic acid 15 mmol/L, 37° C., 7 days
[10] = Feces 1, phenylboronic acid 15 mmol/L, 37° C., 14 days
[11] = Feces 1, phenylboronic acid 15 mmol/L, 37° C., 21 days
[12] = Feces 1, phenylboronic acid 50 mmol/L, 37° C., 0 days
[13] = Feces 1, phenylboronic acid 50 mmol/L, 37° C., 7 days
[14] = Feces 1, phenylboronic acid 50 mmol/L, 37° C., 14 days
[15] = Feces 1, phenylboronic acid 50 mmol/L, 37° C., 21 days
[16] = Feces 1, phenylboronic acid 100 mmol/L, 37° C., 0 days
[17] = Feces 1, phenylboronic acid 100 mmol/L, 37° C., 7 days
[18] = Feces 1, phenylboronic acid 100 mmol/L, 37° C., 14 days
[19] = Feces 1, phenylboronic acid 100 mmol/L, 37° C., 21 days
[20] = Feces 2, phenylboronic acid 0.5 mmol/L, 37° C., 0 days
[21] = Feces 2, phenylboronic acid 0.5 mmol/L, 37° C., 7 days
[22] = Feces 2, phenylboronic acid 0.5 mmol/L, 37° C., 14 days
[23] = Feces 2, phenylboronic acid 0.5 mmol/L, 37° C., 21 days
[24] = Feces 2, phenylboronic acid 1 mmol/L, 37° C., 7 days
[25] = Feces 2, phenylboronic acid 1 mmol/L, 37° C., 14 days
[26] = Feces 2, phenylboronic acid 1 mmol/L, 37° C., 21 days
[27] = Feces 2, phenylboronic acid 15 mmol/L, no sugar, 0 days at 37° C.
[28] = Feces 2, phenylboronic acid 15 mmol/L, no sugar, 7 days at 37° C.
[29] = Feces 2, phenylboronic acid 15 mmol/L, no sugar, 14 days at 37° C.
[30] = Feces 2, phenylboronic acid 15 mmol/L, no sugar, 21 days at 37° C.
[31] = Feces 2, phenylboronic acid 15 mmol/L, 37° C., 0 days
[32] = Feces 2, phenylboronic acid 15 mmol/L, 37° C., 7 days
[33] = Feces 2, phenylboronic acid 15 mmol/L, 37° C., 14 days
[34] = Feces 2, phenylboronic acid 15 mmol/L, 37° C., 21 days
[35] = Feces 2, phenylboronic acid 50 mmol/L, 37° C., 0 days
[36] = Feces 2, phenylboronic acid 50 mmol/L, 37° C., 7 days
[37] = Feces 2, phenylboronic acid 50 mmol/L, 37° C., 21 days
[38] = Feces 2, phenylboronic acid 100 mmol/L, 37° C., 0 days
[39] = Feces 2, phenylboronic acid 100 mmol/L, 37° C., 7 days
[40] = Feces 2, phenylboronic acid 100 mmol/L, 37° C., 14 days
[41] = Feces 2, phenylboronic acid 100 mmol/L, 37° C., 21 days

## OB(O)c1ccccc1 [phenylboronic acid]
Feces 1, Feces 2, Feces 3, phenylboronic acid at 0.5 mmol/L or more
  recovery ratio of hemoglobin in the samples: improved
[1]
  Hb concentration: 279 µg/L
  Recovery ratio with respect to Hb concentration after 0 days: 100%
[2]
  Hb concentration: 181 µg/L
  Recovery ratio with respect to Hb concentration after 0 days: 65%
[3]
  Hb concentration: 147 µg/L
  Recovery ratio with respect to Hb concentration after 0 days: 53%
[4]
  Hb concentration: 129 µg/L
  Recovery ratio with respect to Hb concentration after 0 days: 46%
[5]
  Hb concentration: 275 µg/L
  Recovery ratio with respect to Hb concentration after 0 days: 100%
Feces 1, phenylboronic acid 1 mmol/L, 37° C., 7 days
  Recovery ratio with respect to Hb concentration after 0 days: 66%
[6]
  Hb concentration: 148 µg/L
  Recovery ratio with respect to Hb concentration after 0 days: 54%
[7]
  Hb concentration: 125 µg/L
  Recovery ratio with respect to Hb concentration after 0 days: 45%
[8]
  Hb concentration: 302 µg/L
  Recovery ratio with respect to Hb concentration after 0 days: 100%
[9]
  Hb concentration: 243 µg/L
  Recovery ratio with respect to Hb concentration after 0 days: 80%
[10]
  Hb concentration: 239 µg/L
  Recovery ratio with respect to Hb concentration after 0 days: 79%
[11]
  Hb concentration: 224 µg/L
  Recovery ratio with respect to Hb concentration after 0 days: 74%
[12]
  Hb concentration: 290 µg/L
  Recovery ratio with respect to Hb concentration after 0 days: 100%
[13]
  Hb concentration: 230 µg/L
  Recovery ratio with respect to Hb concentration after 0 days: 79%
[14]
  Hb concentration: 204 µg/L
  Recovery ratio with respect to Hb concentration after 0 days: 70%
[15]
  Hb concentration: 185 µg/L
  Recovery ratio with respect to Hb concentration after 0 days: 64%
[16]
  Hb concentration: 271 µg/L
  Recovery ratio with respect to Hb concentration after 0 days: 100%
[17]
  Hb concentration: 186 µg/L
  Recovery ratio with respect to Hb concentration after 0 days: 69%
[18]
  Hb concentration: 137 µg/L
  Recovery ratio with respect to Hb concentration after 0 days: 51%
[19]
  Hb concentration: 97 µg/L
  Recovery ratio with respect to Hb concentration after 0 days: 36%
[20]
  Hb concentration: 271 µg/L
  Recovery ratio with respect to Hb concentration after 0 days: 100%
[21]
  Hb concentration: 147 µg/L
  Recovery ratio with respect to Hb concentration after 0 days: 54%
[22]
  Hb concentration: 113 µg/L
  Recovery ratio with respect to Hb concentration after 0 days: 42%
[23]
  Hb concentration: 91 µg/L
  Recovery ratio with respect to Hb concentration after 0 days: 34%
Feces 2, phenylboronic acid 1 mmol/L, 37° C., 0 days
  Recovery ratio with respect to Hb concentration after 0 days: 100%
[24]
  Hb concentration: 166 µg/L
  Recovery ratio with respect to Hb concentration after 0 days: 58%
[25]
  Hb concentration: 136 µg/L
  Recovery ratio with respect to Hb concentration after 0 days: 48%
[26]
  Hb concentration: 116 µg/L
  Recovery ratio with respect to Hb concentration after 0 days: 41%
[27]
  Hb concentration: 283 µg/L
  Recovery ratio with respect to Hb concentration after 0 days: 100%
[28]
  Hb concentration: 249 µg/L
  Recovery ratio with respect to Hb concentration after 0 days: 88%
[29]
  Hb concentration: 214 µg/L
  Recovery ratio with respect to Hb concentration after 0 days: 76%
[30]
  Hb concentration: 191 µg/L
  Recovery ratio with respect to Hb concentration after 0 days: 67%
[31]
  Hb concentration: 283 µg/L
  Recovery ratio with respect to Hb concentration after 0 days: 100%
[32]
  Hb concentration: 249 µg/L
  Recovery ratio with respect to Hb concentration after 0 days: 88%
[33]
  Hb concentration: 214 µg/L
  Recovery ratio with respect to Hb concentration after 0 days: 76%
[34]
  Hb concentration: 191 µg/L
  Recovery ratio with respect to Hb concentration after 0 days: 67%
[35]
  Hb concentration: 269 µg/L
  Recovery ratio with respect to Hb concentration after 0 days: 100%
[36]
  Hb concentration: 214 µg/L
  Recovery ratio with respect to Hb concentration after 0 days: 80%
Feces 2, phenylboronic acid 50 mmol/L, 37° C., 14 days
  Recovery ratio with respect to Hb concentration after 0 days: 65%
[37]
  Hb concentration: 149 µg/L
  Recovery ratio with respect to Hb concentration after 0 days: 55%
[38]
  Hb concentration: 250 µg/L
  Recovery ratio with respect to Hb concentration after 0 days: 100%
[39]
  Hb concentration: 139 µg/L
  Recovery ratio with respect to Hb concentration after 0 days: 56%
[40]
  Hb concentration: 80 µg/L
  Recovery ratio with respect to Hb concentration after 0 days: 32%
[41]
  Hb concentration: 36 µg/L
  Recovery ratio with respect to Hb concentration after 0 days: 14%
Feces 3, phenylboronic acid 0.5 mmol/L, 37° C., 0 days
  Hb concentration: 283 µg/L
